From paper PMC9736874, “Development of Hydroxamate Derivatives Containing a Pyrazoline Moiety as APN Inhibitors to Overcome Angiogenesis” (Molecules, 2022)

Key:
U937 cells = assay: Anti-proliferative assay (MTT), U937; format: cell-based; conditions: Homo sapiens, U-937, 48 h, triplicate, mean ± SD
Method: (§1) The MTT method was used for the determination of anti-proliferative activities of selected compounds against tumor cells. Human histiocytic lymphoma cells U937, human chronic myeloid leukemia cells K562, liver carcinoma alexander cells PLC/PRF/5, human prostate cancer cells PC-3, human ovarian clear cell carcinoma cells ES-2, human hepatocellular carcinoma cells HepG2 were selected as tested tumor cell lines. Firstly, the cells were cultured in RPMI 1640 medium with 10% FBS at 37 °C in 5% CO2 humidified incubator. Cells (100 μL) in logarithmic phase were inoculated in 96-well plates and allowed to grow for 4 h. Subsequently, inhibitors (100 μL) at the tested concentration were added, followed by incubation for 48 h. Then, to the mixture was added MTT solution (20 μL, 5 mg/mL) and further incubated for 4 h. The plates were centrifuged at 800 rpm for 3 min. The supernatant was poured off and the formed formazan was dissolved in DMSO (200 μL). Finally, the mixture was shaken for 15 min and the absorbance values of the formazan solution were measured at 570 nm with a plate reader (Varioskan, Thermo, Waltham, MA, USA). All the tumor cells were owned by our laboratory.

K562 cells = assay: Anti-proliferative assay (MTT), K562; format: cell-based; conditions: Homo sapiens, 48 h, triplicate, mean ± SD
Method: as §1

PLC/PRF/5 cells = assay: Anti-proliferative assay (MTT), PLC/PRF/5; format: cell-based; conditions: Homo sapiens, 48 h, triplicate, mean ± SD
Method: as §1

PC-3 cells = assay: Anti-proliferative assay (MTT), PC-3; format: cell-based; conditions: Homo sapiens, 48 h, triplicate, mean ± SD
Method: as §1

ES-2 cells = assay: Anti-proliferative assay (MTT), ES-2; format: cell-based; conditions: Homo sapiens, 48 h, triplicate, mean ± SD
Method: as §1

HepG2 cells = assay: Anti-proliferative assay (MTT), HepG2; format: cell-based; conditions: Homo sapiens, 48 h, triplicate, mean ± SD
Method: as §1

[1] = target: T1, porcine kidney aminopeptidase N (APN) (Sus scrofa, UniProt P15145); assay: Enzymatic inhibition assay against APN in vitro (L-Leu-p-nitroanilide substrate); format: biochemical; conditions: for IC50: soluble APN from porcine kidney microsomal, 37 °C, 30 min, triplicate, mean ± SD
T1 construct: purchased Enzo Life Sciences; host or cells: porcine kidney microsomes (tissue-derived)
T1 sequence (P15145 1-963): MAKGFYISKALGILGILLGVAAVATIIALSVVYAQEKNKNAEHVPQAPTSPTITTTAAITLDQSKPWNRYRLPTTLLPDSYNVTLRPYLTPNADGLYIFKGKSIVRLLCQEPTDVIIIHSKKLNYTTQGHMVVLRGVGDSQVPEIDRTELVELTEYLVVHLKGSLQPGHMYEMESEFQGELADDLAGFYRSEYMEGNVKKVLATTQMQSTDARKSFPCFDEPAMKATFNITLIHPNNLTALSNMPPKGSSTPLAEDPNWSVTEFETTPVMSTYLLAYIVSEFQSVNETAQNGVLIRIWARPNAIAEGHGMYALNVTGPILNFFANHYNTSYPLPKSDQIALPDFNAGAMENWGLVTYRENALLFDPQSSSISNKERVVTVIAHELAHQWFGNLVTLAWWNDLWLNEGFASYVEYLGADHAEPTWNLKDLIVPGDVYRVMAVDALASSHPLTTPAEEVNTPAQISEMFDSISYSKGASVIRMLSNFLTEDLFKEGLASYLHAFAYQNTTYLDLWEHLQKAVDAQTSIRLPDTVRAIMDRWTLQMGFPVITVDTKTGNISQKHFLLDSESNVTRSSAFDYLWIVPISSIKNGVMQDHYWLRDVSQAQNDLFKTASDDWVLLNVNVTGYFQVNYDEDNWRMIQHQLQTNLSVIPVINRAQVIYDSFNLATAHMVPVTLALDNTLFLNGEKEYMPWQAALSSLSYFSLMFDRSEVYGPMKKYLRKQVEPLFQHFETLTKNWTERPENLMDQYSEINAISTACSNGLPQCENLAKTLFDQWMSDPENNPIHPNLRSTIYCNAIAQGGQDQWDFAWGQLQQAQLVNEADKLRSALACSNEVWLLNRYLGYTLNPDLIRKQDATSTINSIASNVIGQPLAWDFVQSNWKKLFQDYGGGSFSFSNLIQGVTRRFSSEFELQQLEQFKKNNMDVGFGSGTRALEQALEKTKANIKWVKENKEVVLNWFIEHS
Method: The enzymatic inhibitory activities of target compounds were evaluated using L-Leu-p-nitroanilide (Sigma-Aldrich, St. Louis, MO, USA) as substrate and soluble APN from porcine kidney microsomal (Enzo Life Sciences, Farmingdale, NY, USA) as enzyme. Firstly, the substrate was dissolved in DMSO to a concentration of 16 mmol/L and the enzyme was dissolved in buffer solution of 50 mM PBS (pH = 7.2) for a concentration of 0.15 IU/L. Subsequently, inhibitors (40 μL) and PBS (145 μL) were added into the 96-well plates, followed by the addition of substrate (5 μL) and enzyme (10 μL). After incubation at 37 °C for 30 min, the absorbance values were measured at 405 nm with a plate reader (Varioskan, Thermo Fisher Scientific, Waltham, MA, USA).

rat thoracic aorta rings = assay: Rat aortic ring assay (ex vivo anti-angiogenesis); format: cell-based, Sprague Dawley rats
Method: The thoracic aortas were separated from 8- to 10-week-old male Sprague Dawley rats and cut into rings with a 1-mm-long cross-section after removal of the connective tissues around the aortas. The fresh aortic ring was added into the 96-well plates pre-coated with matrigel (50 μL, BD bioscience), and covered with another 50 μL of matrigel. After incubation at 37 °C in 5% CO2 for 0.5 h, the tested compounds (100 μL) in M199 culture medium with 10% FBS was added to the mixture and incubated at 37 °C in 5% CO2 for 9 d. For the treatment group, the M199 culture medium with 10% FBS and inhibitors was changed every three days. For the control group, the M199 culture medium with 10% FBS and 0.5% DMSO was changed every three days. The formed micro-vessels were photographed by inverted microscope at 100× magnification. Experiments were repeated three times. All experiments involving laboratory animals were performed with the approval of the Laboratory Animal Welfare Review Committee of Shandong University of Traditional Chinese Medicine.

| IC50 [1] [µM] | melting point [°C] | SMILES | other results |
| --- | --- | --- | --- |
| – | – | CC(C)C[C@H](NC(=O)[C@@H](O)[C@H](N)Cc1ccccc1)C(=O)O [Bestatin, bestatin, reference compound] | IC50 (U937 cells): > 500 µM; IC50 (K562 cells): > 500 µM; IC50 (PLC/PRF/5 cells): > 500 µM; IC50 (PC-3 cells): > 500 µM; IC50 (ES-2 cells): > 500 µM; IC50 (HepG2 cells): > 500 µM |
| 0.0062 ± 0.0004 | 174 to 176 | CC(=O)N1N=C(c2c(Cl)cccc2Cl)CC1c1ccccc1OCC(=O)NO (centres unmarked) [Compound 14o, 2-(2-(1-Acetyl-3-(2,6-dichlorophenyl)-4,5-dihydro-1H-pyrazol-5-yl)phenoxy)-N-hydroxyacetamide] | fold more potent against APN than lead compound 13c ([1]; ratio of APN IC50 values): over 9 fold; fold more potent against APN than positive control bestatin ([1]; ratio of APN IC50 values): over 1419 fold; IC50 (U937 cells): 38.3 ± 3.6 µM; IC50 (K562 cells): 10.4 ± 1.2 µM; IC50 (PLC/PRF/5 cells): 88.5 ± 7.4 µM; IC50 (PC-3 cells): 45.8 ± 4.1 µM; IC50 (ES-2 cells): 115 ± 9.7 µM; IC50 (HepG2 cells): 84.2 ± 7.6 µM; growth of micro-vessels derived from the thoracic aorta rings (rat thoracic aorta rings; 1 μM and 50 μM, 9 d incubation): could prevent the growth of micro-vessels derived from the thoracic aorta rings in a dose–dependent manner; micro-vessels at 50 μM compared with the group treated with 1 μM (rat thoracic aorta rings; 50 μM, 9 d incubation): obviously reduced micro-vessels; anti-angiogenic activity compared with bestatin (rat thoracic aorta rings; same concentration of 50 μM): much better than that of bestatin |
| 0.54 ± 0.04 | 202 to 204 | NC(=O)N1N=C(c2ccccc2I)CC1c1cc(Br)ccc1OCC(=O)NO (centres unmarked) [Compound 14v, 5-(5-Bromo-2-(2-(hydroxyamino)-2-oxoethoxy)phenyl)-3-(2-iodophenyl)-4,5-dihydro-1H-pyrazole-1-carboxamide] | – |
| 0.07 ± 0.003 | 190 to 192 | NC(=O)N1N=C(c2ccccc2I)CC1c1c(Cl)cccc1OCC(=O)NO (centres unmarked) [Compound 14z, 5-(2-Chloro-6-(2-(hydroxyamino)-2-oxoethoxy)phenyl)-3-(2-iodophenyl)-4,5-dihydro-1H-pyrazole-1-carboxamide] | – |
| 0.37 ± 0.02 | 106 to 108 | CC(=O)N1N=C(c2ccccc2I)CC1c1cc(Br)ccc1OCC(=O)NO (centres unmarked) [Compound 14u, 2-(2-(1-Acetyl-3-(2-iodophenyl)-4,5-dihydro-1H-pyrazol-5-yl)-4-bromophenoxy)-N-hydroxyacetamide] | – |
| 0.55 ± 0.04 | 96 to 98 | NC(=O)N1N=C(c2ccccc2OCc2ccc(Br)cc2)CC1c1ccccc1OCC(=O)NO (centres unmarked) [Compound 14hh, 3-(2-((4-Bromobenzyl)oxy)phenyl)-5-(2-(2-(hydroxyamino)-2-oxoethoxy)phenyl)-4,5-dihydro-1H-pyrazole-1-carboxamide] | – |
| 3.8 ± 0.2 | 120 to 122 | COc1ccc(C2=NN(C(C)=O)C(c3ccccc3OCC(=O)NO)C2)cc1 (centres unmarked) [Compound 14f, 2-(2-(1-Acetyl-3-(4-methoxyphenyl)-4,5-dihydro-1H-pyrazol-5-yl)phenoxy)-N-hydroxy acetamide] | – |
| 0.044 ± 0.003 | 164 to 166 | NC(=O)N1N=C(c2ccccc2I)CC1c1ccccc1OCC(=O)NO (centres unmarked) [Compound 14j, 5-(2-(2-(Hydroxyamino)-2-oxoethoxy)phenyl)-3-(2-iodophenyl)-4,5-dihydro-1H-pyrazole-1-carboxamide] | – |
| 4.4 ± 0.3 | 202 to 204 | CC(=O)N1N=C(c2ccc(Br)cc2)CC1c1ccccc1OCC(=O)NO (centres unmarked) [Compound 14c, 2-(2-(1-Acetyl-3-(4-bromophenyl)-4,5-dihydro-1H-pyrazol-5-yl)phenoxy)-N-hydroxy acetamide] | – |
| 0.32 ± 0.01 | 170 to 172 | COc1ccccc1C1=NN(C(C)=O)C(c2ccccc2OCC(=O)NO)C1 (centres unmarked) [Compound 14d, 2-(2-(1-Acetyl-3-(2-methoxyphenyl)-4,5-dihydro-1H-pyrazol-5-yl)phenoxy)-N-hydroxy acetamide] | – |
